From ChEMBL document CHEMBL1201862, “PubChem BioAssay data set” (2004)
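These data come from cells grown in 96-well plates and exposed to compound for 48 hours at five concentrations. GI50 is the concentration that inhibits growth by half.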 Calls of active or inactive are those of the source. Rule as the data show it: active = GI50 up to about 1.1 µM and inactive = higher.

Key:
Experiment in all cases: NCI-60 cell line screen, 48 h
786-0 = system: 786-0
A498 = system: A498
A549 = system: A549
ACHN = system: ACHN
CAKI-1 = system: CAKI-1
CCRF-CEM = system: CCRF-CEM
COLO 205 = system: COLO 205
DLD-1 = system: DLD-1
DMS-114 = system: DMS-114
DMS-273 = system: DMS-273
EKVX = system: EKVX
HCC 2998 = system: HCC 2998
HCT-116 = system: HCT-116
HCT-15 = system: HCT-15
HL-60 = system: HL-60
HOP-62 = system: HOP-62
HOP-92 = system: HOP-92
HT-29 = system: HT-29
IGROV-1 = system: IGROV-1
K562 = system: K562
KM-20L2 = system: KM-20L2
KM12 = system: KM12
LOX IMVI = system: LOX IMVI
LXFL 529 = system: LXFL 529
M14 = system: M14
MOLT-4 = system: MOLT-4
Malme-3M = system: Malme-3M
NCI-H226 = system: NCI-H226
NCI-H23 = system: NCI-H23
NCI-H460 = system: NCI-H460
NCI-H522 = system: NCI-H522
OVCAR-3 = system: OVCAR-3
OVCAR-4 = system: OVCAR-4
OVCAR-5 = system: OVCAR-5
OVCAR-8 = system: OVCAR-8
RPMI-8226 = system: RPMI-8226
RXF 393 = system: RXF 393
SF-268 = system: SF-268
SF-295 = system: SF-295
SF-539 = system: SF-539
SK-MEL-28 = system: SK-MEL-28
SK-MEL-2 = system: SK-MEL-2
SK-MEL-5 = system: SK-MEL-5
SK-OV-3 = system: SK-OV-3
SN12C = system: SN12C
SNB-19 = system: SNB-19
SNB-75 = system: SNB-75
SNB-78 = system: SNB-78
SR = system: SR
SW-620 = system: SW-620
TK-10 = system: TK-10
U-251 = system: U-251
UACC-257 = system: UACC-257
UACC-62 = system: UACC-62
UO-31 = system: UO-31
XF498 = system: XF498

CCN(CC)c1ccc2cc3ccc(N(CC)CC)cc3[o+]c2c1
GI50 (786-0): 2970 nM (inactive)
GI50 (A498): 14600 nM (inactive)
GI50 (A549): 3140 nM (inactive)
GI50 (ACHN): 1260 nM (inactive)
GI50 (CAKI-1): 4060 nM (inactive)
GI50 (CCRF-CEM): 41.9 nM (active)
GI50 (COLO 205): 798 nM (active)
GI50 (DLD-1): 1390 nM (inactive)
GI50 (DMS-114): 687 nM (active)
GI50 (DMS-273): 1120 nM (active)
GI50 (EKVX): 5500 nM (inactive)
GI50 (HCC 2998): 4390 nM (inactive)
GI50 (HCT-116): 290 nM (active)
GI50 (HCT-15): 2070 nM
GI50 (HL-60): 77.3 nM (active)
GI50 (HOP-62): 3310 nM (inactive)
GI50 (HOP-92): 693 nM (active)
GI50 (HT-29): 474 nM (active)
GI50 (IGROV-1): 2080 nM (inactive)
GI50 (K562): 2820 nM (inactive)
GI50 (KM-20L2): 1820 nM (inactive)
GI50 (KM12): 510 nM (active)
GI50 (LOX IMVI): 600 nM (active)
GI50 (LXFL 529): 457 nM (active)
GI50 (M14): 1950 nM (inactive)
GI50 (MOLT-4): 127 nM (active)
GI50 (Malme-3M): 1200 nM (inactive)
GI50 (NCI-H226): 5620 nM (inactive)
GI50 (NCI-H23): 946 nM (active)
GI50 (NCI-H460): 1780 nM (inactive)
GI50 (NCI-H522): 1690 nM (inactive)
GI50 (OVCAR-3): 800 nM (active)
GI50 (OVCAR-4): 11100 nM (inactive)
GI50 (OVCAR-5): 6820 nM (inactive)
GI50 (OVCAR-8): 407 nM (active)
GI50 (RPMI-8226): 305 nM (active)
GI50 (RXF 393): 2360 nM (inactive)
GI50 (SF-268): 1290 nM (inactive)
GI50 (SF-295): 4480 nM (inactive)
GI50 (SF-539): 2020 nM (inactive)
GI50 (SK-MEL-28): 2560 nM (inactive)
GI50 (SK-MEL-2): 1340 nM (inactive)
GI50 (SK-MEL-5): 2340 nM (inactive)
GI50 (SK-OV-3): 6520 nM (inactive)
GI50 (SN12C): 832 nM (active)
GI50 (SNB-19): 7800 nM (inactive)
GI50 (SNB-75): 5370 nM (inactive)
GI50 (SNB-78): 2430 nM (inactive)
GI50 (SR): 267 nM (active)
GI50 (SW-620): 237 nM (active)
GI50 (TK-10): 6080 nM (inactive)
GI50 (U-251): 624 nM (active)
GI50 (UACC-257): 2590 nM (inactive)
GI50 (UACC-62): 1710 nM (inactive)
GI50 (UO-31): 2280 nM (inactive)
GI50 (XF498): 1230 nM (inactive)
